{"source": "patent US8609332B2", "about": "“Assay” (Queen's University of Belfast, priority 2006, dated 2013)", "key": {"[1]": {"settings": "at 50 μM; cited from earlier work"}, "[2]": {"test_system": "ser473 phosphorylated Akt", "test": "AKT phosphorylation immunoblot", "format": "cell-based, rat", "description": "FIG. 5C Immunodetection and LY290042-inhibition of phosphorylated Akt in parental R37, R37-CMV, R37-OPN and R37-RAN cells. 20 μg cell lysates were loaded onto a SDS 10% (W(W) polyacrylamide gel as follows: lane 1 R37, lane 2 R37-pBk-CMV; lane 3 R37-RAN, lane 4 R37-OPN; lane 5 R37-OPN treated with 50 μm LY290042 for 18 hr (R37-OPN/LY); and lane 6 R37-RAN treated with 50 μm LY290042 for 18 hr (R37-RAN/LY). Proteins were detected in immunoblots using specific antibodies to phosphoserine 473 AkT. Bands were quantified using densitometric analysis and quantified with respect to those of β-actin. The results were a representative sample of three experiments. The average fold increase for 3 different experiments for phosphorylated AkT on ser473 is: lane 1=1, lane 2=2.2±0.4, lane 3=22.5±0.7, lane 4=21.1±0.5, lane 5=0±0 and lane 6=0±0.\nThe R37, R37-CMV, R37-RAN and R37-OPN cells were harvested at 80% confluence from 7 cm dishes. The cell were lysed in 300 μl of 2× Loading buffer (20% glycerol (v/v), 4% SDS (w/v), 10% 2-mercaptoethanol (v/v), 126 mM Tris, pH 6.8 and coloured with bromophenol blue). The lysates were sonicated, boiled at 100° C. for 5 minutes and then centrifuged at 15000 rpm for 10 minutes. Proteins were resolved by 7.5% SDS-PAGE and immunoblofted for ser473 phosphorylated Akt.as previously (43)."}}, "data": [{"smiles": "O=c1cc(N2CCOCC2)oc2c(-c3ccccc3)cccc12", "note": "[LY294002, 2-4(4-morpholinyl)-8-phenyl-4H-1-benzopyran-4-one]", "values": [{"measurement": "induction of apoptosis", "setting": "[1]", "result": "without inducing apoptosis"}, {"measurement": "phosphorylated AkT on ser473, average fold increase (R37 = 1)", "setting": "[2]; R37-OPN cells treated with 50 μm for 18 hr (lane 5)", "result": "0±0", "unit": "fold"}, {"measurement": "phosphorylated AkT on ser473, average fold increase (R37 = 1)", "setting": "[2]; R37-RAN cells treated with 50 μm for 18 hr (lane 6)", "result": "0±0", "unit": "fold"}]}]}
